In data set [1] the test system is Herpes Simplex Virus (HSV 1). Briefly: HSV 1 plaque reduction assay in Vero cell monolayers. It counts as cell-based. The following applies: read-out: 50% inhibitory concentration (IC50). Here is the method:
Herpes Simplex Virus (HSV 1) was assayed in monolayers of Vero cells in multiwell trays. Activity of compounds was determined in the plaque reduction assay, in which a cell monolayer was infected with a suspension of HSV 1, and then overlaid with nutrient agarose in the form of a gel to ensure that there was no spread of virus throughout the culture. A range of concentrations of compound of known molarity was incorporated in the nutrient agarose overlay. Plaque numbers at each concentration are expressed as percentages of the control and a dose-response curve was drawn. From this curve the 50% inhibitory concentration (IC50) was estimated.
For orientation: Plaques are areas of infected cells; plaque reduction assays count them against a control.

For data set [2] the following is noted: background statement; cited from earlier work.
The conditions of data set [3]: cited from earlier work.
Another data set has as its system herpes viruses. To be noted: cited from earlier work.
Data set [4] is described as follows: Oral bioavailability in rats: urinary recovery as acyclovir after oral administration (gavage). Type of data set: in vivo, Long Evans Rates (rats). Here is the method:
Long Evans Rates are administered the compound to be tested by gavage at a dose equivalent to 25 mg/kg acyclovir. The urine is collected for 24 and 48 hours post-dose, ultrafiltered, and analysed by reverse-phase high-pressure liquid chromatography. The oral bioavailability of the compound is expressed as the percent of the dose excreted in the urine as acyclovir.

Data set [5] is described as follows: Plasma levels of acyclovir after oral administration in animals. It counts as in vivo.

Read-outs that look alike come from different tables or passages of the source.

As to `Nc1nc2c(ncn2COCCO)c(=O)[nH]1` [Acyclovir, 9-(2-Hydroxyethoxymethyl)guanine], in data set [1] (Vero), the IC50 was roughly 0.1 µM. The “absorption from the gastrointestinal tract after oral administration” value in data set [2] is “only poorly absorbed”. Further, in data set [3], the solubility in water result is reported as “poorly soluble”. Moreover, in the data set with herpes viruses, the “antiviral activity, particularly against herpes viruses” value was “potent antiviral activity”.

In the case of `CCCCC(=O)OCCOCn1cnc2c(=O)[nH]c(N)nc21` [Example A, 9-(2-valeryloxyethoxymethyl)guanine], the IC50 in data set [1] (HSV 1, Vero cells, plaque reduction) was 0.2 µM. Further, the “bioavailability compared with acyclovir or the esters disclosed in UK 1523865 and 1561380” value in data set [4] (oral) was “improved bioavailability”. Besides, the “Urinary Recovery (% of dose) as acyclovir” value in data set [4] (rats, gavage, dose equivalent to 25 mg/kg acyclovir, urine 24 and 48 hours post-dose) is reported as 34 % of dose. The “levels of acyclovir in the plasma” value in data set [5] was “measurable levels of acyclovir in the plasma”.
